Source: ChEMBL document CHEMBL5465560, “Selectivity Literature for EUbOPEN Chemogenomic Library” (2024)

Legend:
[1] = target: Mitogen-activated protein kinase kinase kinase kinase 1 (Homo sapiens) (UniProt Q92918); assay: Selectivity interaction (KinomeScan (DiscoverX)) EUB0000666a MAP4K1; settings: at 10 µM
[2] = target: Dual specificity testis-specific protein kinase 1 (Homo sapiens) (UniProt Q15569); assay: Selectivity interaction (KinomeScan (DiscoverX)) EUB0000666a TESK1; settings: at 10 µM
Dual specificity testis-specific protein kinase 1 (Homo sapiens), sequence (Q15569 whole entry, looked up): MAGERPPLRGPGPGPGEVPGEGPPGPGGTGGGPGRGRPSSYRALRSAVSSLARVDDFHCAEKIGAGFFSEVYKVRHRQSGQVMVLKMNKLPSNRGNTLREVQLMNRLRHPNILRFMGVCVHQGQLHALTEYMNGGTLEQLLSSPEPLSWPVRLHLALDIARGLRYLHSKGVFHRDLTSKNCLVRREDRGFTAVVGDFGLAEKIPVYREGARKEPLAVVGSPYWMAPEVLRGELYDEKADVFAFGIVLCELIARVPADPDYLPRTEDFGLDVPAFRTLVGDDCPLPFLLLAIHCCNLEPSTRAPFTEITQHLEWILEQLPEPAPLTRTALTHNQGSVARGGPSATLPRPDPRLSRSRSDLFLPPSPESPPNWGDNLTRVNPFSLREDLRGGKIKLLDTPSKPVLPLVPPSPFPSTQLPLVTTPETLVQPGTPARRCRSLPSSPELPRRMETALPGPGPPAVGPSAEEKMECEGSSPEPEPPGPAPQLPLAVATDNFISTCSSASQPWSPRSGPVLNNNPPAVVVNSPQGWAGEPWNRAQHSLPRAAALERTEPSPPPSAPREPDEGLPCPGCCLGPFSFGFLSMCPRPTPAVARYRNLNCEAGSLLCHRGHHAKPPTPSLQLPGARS

[3] = target: MAP kinase-activated protein kinase 5 (Homo sapiens, UniProt Q8IW41); assay: Selectivity interaction (Kinase panel (33PanQinase(R) Activity Assay)) EUB0000877a MAPKAPK5
[4] = target: Serine/threonine-protein kinase SMG1 (Homo sapiens) (UniProt Q96Q15); assay: Selectivity interaction (ActivX KiNativ screen (kinase selectivity in THP-1 cell lysates)) EUB0000639a SMG1; type: subcellular; settings: lysate
Serine/threonine-protein kinase SMG1 (Homo sapiens), sequence (Q96Q15 whole entry): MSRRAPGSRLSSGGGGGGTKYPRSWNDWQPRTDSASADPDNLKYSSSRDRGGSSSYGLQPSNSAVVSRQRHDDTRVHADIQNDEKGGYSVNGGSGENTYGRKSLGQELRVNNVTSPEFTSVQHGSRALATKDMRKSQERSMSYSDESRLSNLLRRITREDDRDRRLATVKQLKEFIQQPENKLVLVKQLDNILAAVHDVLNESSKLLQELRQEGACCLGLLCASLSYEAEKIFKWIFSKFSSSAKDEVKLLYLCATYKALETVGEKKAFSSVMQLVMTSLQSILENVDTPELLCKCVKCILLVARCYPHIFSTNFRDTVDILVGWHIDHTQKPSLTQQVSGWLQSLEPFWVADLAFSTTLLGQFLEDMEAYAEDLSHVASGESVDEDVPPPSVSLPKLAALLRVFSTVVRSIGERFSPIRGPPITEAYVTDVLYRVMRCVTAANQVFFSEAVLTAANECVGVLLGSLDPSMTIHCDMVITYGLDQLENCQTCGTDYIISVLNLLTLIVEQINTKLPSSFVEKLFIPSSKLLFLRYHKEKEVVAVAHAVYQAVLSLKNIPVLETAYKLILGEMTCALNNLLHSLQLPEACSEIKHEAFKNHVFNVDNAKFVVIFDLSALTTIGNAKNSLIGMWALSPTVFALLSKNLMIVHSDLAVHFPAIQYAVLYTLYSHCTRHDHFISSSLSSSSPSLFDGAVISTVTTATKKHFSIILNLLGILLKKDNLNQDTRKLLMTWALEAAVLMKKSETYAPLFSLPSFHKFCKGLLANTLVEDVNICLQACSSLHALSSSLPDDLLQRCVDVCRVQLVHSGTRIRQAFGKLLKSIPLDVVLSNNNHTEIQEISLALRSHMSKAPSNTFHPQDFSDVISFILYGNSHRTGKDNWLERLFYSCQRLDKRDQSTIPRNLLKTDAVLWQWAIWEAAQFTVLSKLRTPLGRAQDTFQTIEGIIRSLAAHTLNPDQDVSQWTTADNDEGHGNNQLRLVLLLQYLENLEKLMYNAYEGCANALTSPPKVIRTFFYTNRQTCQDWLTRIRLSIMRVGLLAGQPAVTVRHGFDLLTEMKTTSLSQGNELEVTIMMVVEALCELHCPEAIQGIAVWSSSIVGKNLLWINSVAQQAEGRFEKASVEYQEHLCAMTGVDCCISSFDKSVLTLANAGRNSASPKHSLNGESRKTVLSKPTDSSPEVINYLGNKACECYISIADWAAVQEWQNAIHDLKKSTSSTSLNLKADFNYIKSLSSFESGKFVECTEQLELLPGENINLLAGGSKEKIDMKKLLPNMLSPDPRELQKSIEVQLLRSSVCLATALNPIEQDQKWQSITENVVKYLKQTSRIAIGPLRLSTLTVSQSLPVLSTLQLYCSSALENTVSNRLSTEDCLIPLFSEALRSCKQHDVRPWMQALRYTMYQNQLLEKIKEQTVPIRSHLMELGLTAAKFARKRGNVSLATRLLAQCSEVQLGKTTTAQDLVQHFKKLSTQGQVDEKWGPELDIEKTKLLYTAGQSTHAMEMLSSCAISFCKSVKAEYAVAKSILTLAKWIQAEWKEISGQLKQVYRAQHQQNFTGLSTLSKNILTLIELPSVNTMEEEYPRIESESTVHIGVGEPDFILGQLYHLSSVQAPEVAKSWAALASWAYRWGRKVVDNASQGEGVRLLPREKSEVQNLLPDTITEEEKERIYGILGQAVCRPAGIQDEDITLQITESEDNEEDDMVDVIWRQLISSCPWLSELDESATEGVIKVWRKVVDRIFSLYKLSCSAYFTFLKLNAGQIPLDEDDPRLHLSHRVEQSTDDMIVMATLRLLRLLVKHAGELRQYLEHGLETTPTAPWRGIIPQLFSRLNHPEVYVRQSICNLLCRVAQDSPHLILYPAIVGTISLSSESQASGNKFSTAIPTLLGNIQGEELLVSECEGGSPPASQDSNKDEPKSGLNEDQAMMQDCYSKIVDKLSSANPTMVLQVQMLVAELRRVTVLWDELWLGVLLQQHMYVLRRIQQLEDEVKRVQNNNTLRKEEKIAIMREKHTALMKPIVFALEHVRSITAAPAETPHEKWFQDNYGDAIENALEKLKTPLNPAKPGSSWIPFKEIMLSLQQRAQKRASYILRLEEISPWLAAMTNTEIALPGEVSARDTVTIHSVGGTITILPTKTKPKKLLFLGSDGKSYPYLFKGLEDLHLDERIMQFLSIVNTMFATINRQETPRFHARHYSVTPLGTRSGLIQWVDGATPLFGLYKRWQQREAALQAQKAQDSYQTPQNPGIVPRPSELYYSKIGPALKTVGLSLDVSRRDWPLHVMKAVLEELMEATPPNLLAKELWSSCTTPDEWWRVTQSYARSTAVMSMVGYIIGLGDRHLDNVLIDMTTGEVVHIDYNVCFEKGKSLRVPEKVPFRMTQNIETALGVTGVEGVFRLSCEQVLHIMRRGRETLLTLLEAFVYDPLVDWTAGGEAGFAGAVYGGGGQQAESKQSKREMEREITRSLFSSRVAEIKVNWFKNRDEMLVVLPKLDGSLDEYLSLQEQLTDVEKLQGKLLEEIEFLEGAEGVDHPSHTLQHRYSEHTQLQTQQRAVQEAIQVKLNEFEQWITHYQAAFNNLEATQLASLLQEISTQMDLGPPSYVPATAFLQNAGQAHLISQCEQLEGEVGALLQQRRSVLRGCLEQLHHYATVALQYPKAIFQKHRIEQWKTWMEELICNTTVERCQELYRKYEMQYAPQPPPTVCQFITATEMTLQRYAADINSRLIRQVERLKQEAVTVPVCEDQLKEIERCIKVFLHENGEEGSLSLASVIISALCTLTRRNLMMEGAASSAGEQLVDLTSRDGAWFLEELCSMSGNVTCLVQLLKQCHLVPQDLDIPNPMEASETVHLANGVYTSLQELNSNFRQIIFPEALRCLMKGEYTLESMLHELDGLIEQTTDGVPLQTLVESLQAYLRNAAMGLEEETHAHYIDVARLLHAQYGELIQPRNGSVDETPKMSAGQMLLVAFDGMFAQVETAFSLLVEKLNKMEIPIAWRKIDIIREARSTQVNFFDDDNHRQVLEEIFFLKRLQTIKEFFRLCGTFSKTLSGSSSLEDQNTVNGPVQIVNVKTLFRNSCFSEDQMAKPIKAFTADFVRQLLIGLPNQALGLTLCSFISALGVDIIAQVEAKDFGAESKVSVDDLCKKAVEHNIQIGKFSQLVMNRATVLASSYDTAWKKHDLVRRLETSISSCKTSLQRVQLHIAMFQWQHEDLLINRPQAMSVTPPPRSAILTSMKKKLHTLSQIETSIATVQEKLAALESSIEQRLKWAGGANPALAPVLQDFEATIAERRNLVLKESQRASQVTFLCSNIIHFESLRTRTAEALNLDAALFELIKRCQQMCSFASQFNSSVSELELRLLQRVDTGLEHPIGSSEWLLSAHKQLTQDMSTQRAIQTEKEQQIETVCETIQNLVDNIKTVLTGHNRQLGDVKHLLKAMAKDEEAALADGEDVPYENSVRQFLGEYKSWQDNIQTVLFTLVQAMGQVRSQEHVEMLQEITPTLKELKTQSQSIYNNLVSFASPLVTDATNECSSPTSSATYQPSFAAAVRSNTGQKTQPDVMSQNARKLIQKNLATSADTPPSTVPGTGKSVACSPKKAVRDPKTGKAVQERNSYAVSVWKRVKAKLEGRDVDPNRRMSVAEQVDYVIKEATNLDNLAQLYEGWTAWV

[5] = target: 5'-AMP-activated protein kinase catalytic subunit alpha-1 (Homo sapiens, UniProt Q13131); assay: Selectivity interaction (ActivX KiNativ screen (kinase selectivity in THP-1 cell lysates)) EUB0000639a PRKAA1; type: subcellular; settings: lysate, at 0.2 µM
[6] = target: T1, Tyrosine-protein kinase Tec (Homo sapiens) (UniProt P42680); assay: Selectivity interaction (ProQinase) EUB0000171b TEC
T1 sequence (whole entry): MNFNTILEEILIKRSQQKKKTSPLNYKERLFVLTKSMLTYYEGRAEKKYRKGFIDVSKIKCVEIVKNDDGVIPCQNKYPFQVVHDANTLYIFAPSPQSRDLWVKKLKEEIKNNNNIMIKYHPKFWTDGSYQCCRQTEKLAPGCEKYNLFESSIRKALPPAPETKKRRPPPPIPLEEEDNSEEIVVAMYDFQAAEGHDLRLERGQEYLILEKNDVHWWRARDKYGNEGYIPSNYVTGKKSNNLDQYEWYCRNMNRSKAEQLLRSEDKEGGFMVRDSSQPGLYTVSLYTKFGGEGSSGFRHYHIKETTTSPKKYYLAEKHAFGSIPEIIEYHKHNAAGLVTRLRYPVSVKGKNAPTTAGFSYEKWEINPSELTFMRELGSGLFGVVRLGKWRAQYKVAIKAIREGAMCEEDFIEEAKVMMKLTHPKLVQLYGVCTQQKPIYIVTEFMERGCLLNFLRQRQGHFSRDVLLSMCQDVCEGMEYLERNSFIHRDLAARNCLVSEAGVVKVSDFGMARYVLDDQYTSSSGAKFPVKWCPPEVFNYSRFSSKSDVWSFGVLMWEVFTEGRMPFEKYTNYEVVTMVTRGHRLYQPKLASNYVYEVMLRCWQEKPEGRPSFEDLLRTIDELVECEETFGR

[7] = target: Insulin-like growth factor 1 receptor (Homo sapiens, UniProt P08069); assay: Selectivity interaction (Kinase screening (Nanosyn)) EUB0000604a IGF1R
[8] = target: Activin receptor type-1-like (Homo sapiens) (UniProt P37023); assay: Selectivity interaction (KinomeScan (DiscoverX)) EUB0000045b ACVRL1
Activin receptor type-1-like (Homo sapiens), sequence (P37023 whole entry): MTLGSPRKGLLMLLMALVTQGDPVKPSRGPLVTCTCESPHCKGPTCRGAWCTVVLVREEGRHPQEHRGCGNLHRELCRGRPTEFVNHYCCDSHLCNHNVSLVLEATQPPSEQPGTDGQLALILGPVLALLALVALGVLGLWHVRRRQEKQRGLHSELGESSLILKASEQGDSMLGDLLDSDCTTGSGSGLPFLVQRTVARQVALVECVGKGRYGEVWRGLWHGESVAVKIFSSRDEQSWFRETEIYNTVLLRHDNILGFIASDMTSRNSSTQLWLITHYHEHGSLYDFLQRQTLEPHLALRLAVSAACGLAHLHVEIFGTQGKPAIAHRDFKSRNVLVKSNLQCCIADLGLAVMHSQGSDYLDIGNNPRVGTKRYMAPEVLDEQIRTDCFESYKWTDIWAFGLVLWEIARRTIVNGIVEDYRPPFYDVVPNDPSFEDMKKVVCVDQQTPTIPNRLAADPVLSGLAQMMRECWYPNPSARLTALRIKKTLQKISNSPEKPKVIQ

[9] = target: Hepatocyte growth factor receptor (Homo sapiens, UniProt P08581); assay: (§1) Selectivity interaction (KinomeScan (DiscoverX)) EUB0001079a MET; settings: at 1 µM
[10] = test system: Hepatocyte growth factor receptor (Homo sapiens), P08581 [M1250T]; assay: as §1; settings: at 1 µM
[11] = test system: Hepatocyte growth factor receptor (Homo sapiens), P08581 [Y1235D]; assay: as §1; settings: at 1 µM
SRSF protein kinase 1 = SRSF protein kinase 1 (Homo sapiens, UniProt Q96SB4); assay: Selectivity interaction (KinomeScan (DiscoverX)) EUB0000092b SRPK1; settings: at 10 µM
[12] = test system: Epidermal growth factor receptor (Homo sapiens), P00533 [T790M]; settings: at 10 µM
[13] = target: T2, Serine/threonine-protein kinase 36 (Homo sapiens) (UniProt Q9NRP7); assay: Selectivity interaction (KinomeScan (DiscoverX)) EUB0000618a STK36; settings: at 10 µM
T2 sequence (whole entry): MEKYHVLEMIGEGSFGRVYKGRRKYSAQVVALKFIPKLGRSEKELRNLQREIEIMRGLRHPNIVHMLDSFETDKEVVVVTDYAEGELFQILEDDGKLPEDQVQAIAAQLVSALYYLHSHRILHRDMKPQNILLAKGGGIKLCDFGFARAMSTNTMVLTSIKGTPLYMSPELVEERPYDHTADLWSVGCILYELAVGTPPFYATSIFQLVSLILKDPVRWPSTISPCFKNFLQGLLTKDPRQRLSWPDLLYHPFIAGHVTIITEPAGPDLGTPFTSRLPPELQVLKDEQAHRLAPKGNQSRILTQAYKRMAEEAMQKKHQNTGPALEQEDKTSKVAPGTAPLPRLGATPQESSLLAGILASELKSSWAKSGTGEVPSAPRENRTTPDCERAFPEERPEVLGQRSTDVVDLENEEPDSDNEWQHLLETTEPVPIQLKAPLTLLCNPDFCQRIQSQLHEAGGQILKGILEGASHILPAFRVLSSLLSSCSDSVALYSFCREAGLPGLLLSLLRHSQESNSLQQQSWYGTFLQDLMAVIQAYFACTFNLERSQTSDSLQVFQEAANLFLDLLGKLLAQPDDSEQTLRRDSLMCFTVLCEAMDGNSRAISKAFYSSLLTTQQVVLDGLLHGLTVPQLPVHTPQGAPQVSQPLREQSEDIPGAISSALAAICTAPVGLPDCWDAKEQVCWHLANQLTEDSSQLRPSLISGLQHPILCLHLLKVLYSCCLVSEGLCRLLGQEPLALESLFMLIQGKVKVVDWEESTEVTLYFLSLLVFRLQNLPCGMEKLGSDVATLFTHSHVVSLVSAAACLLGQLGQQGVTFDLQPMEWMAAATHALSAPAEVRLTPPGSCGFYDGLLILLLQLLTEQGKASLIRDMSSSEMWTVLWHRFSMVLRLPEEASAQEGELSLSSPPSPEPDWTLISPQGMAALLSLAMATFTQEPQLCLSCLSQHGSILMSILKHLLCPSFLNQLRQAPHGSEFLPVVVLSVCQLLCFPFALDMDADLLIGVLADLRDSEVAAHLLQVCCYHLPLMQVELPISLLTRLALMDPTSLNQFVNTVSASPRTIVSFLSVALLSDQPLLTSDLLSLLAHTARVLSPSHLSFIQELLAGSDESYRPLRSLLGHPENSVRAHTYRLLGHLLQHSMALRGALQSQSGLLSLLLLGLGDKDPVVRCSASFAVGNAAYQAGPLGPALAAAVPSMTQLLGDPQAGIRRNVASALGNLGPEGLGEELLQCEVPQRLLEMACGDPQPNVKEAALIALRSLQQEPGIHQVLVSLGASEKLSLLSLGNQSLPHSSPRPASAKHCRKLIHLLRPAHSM

[14] = target: Tyrosine-protein kinase Fyn (Homo sapiens) (UniProt P06241); assay: Selectivity interaction (ActivX KiNativ screen (ex vivo kinase selectivity in human PBMCs)) EUB0001619a FYN; type: cell-based; settings: PBMC, at 1 µM

## O=C(NOC[C@H](O)CO)c1ccc(F)c(F)c1Nc1ccc(I)cc1F
[1]
  % of control: 77%
[2]
  % of control: 98%

## CCC(=O)N1CC[C@H](Nc2ncnc3c2CN(c2cnc(OC)c(C(F)(F)F)c2)CC3)C1 [LENIOLISIB]
[3]
  IC50: > 10 µM

## CC[C@@H]1[C@H](F)C(=O)N[C@@H]1COc1nccc2cc(C(N)=O)c(OC)cc12 [ZIMLOVISERTIB]
[4]; at 0.01 µM
  % of inhibition: 7.7%
[4]; at 0.04 µM
  % of inhibition: 1.9%
[4]; at 0.2 µM
  % of inhibition: 6.9%
[4]; at 1 µM
  % of inhibition: 6.1%
[4]; at 5 µM
  % of inhibition: -13.6%
[5]
  % of inhibition: 8.7%

## C=CC(=O)Nc1cccc(C(=O)Nc2ccc(Nc3cc(-c4[nH]c(SC)nc4C)ccn3)cc2)c1
[6]; at 1 µM
  % of control: 99%
[6]; at 5 µM
  % of control: 81%

## Cc1cnc(Nc2ccc(F)cc2Cl)nc1-c1c[nH]c(C(=O)N[C@H](CO)c2cccc(Cl)c2)c1
[7]
  % of inhibition: 2%

## C=CC(=O)Nc1cc(-n2c(=O)ccc3cnc4ccc(-c5ccc(NS(C)(=O)=O)cc5)cc4c32)ccc1C
[8]; at 1 µM
  % of control: 100%
[8]; at 10 µM
  % of control: 75%

## Nc1cnc(N2CCc3cc(S(=O)(=O)Nc4c(F)cc(Cl)cc4F)cc(N4CCCC4=O)c32)nc1 [TP-020n]
[9]
  % of control: 69%
[10]
  % of control: 100%
[11]
  % of control: 69%

## CCC(=O)N1CCN(c2ccc(-n3c(=O)ccc4cnc5ccc(-c6cnc7ccccc7c6)cc5c43)cc2C(F)(F)F)CC1
SRSF protein kinase 1
  % of control: 100%

## Cc1cc([C@@H](C)Nc2ccccc2C(=O)O)c2nc(N3CCOCC3)cc(=O)n2c1 [AZD-6482]
[12]
  % of control: 100%

## O[C@H]1CC[C@H](Nc2ncc3nc(Nc4c(F)cc(F)cc4F)n([C@H]4CCOC4)c3n2)CC1
[13]
  % of control: 6.5%

## N#Cc1cccc(-c2c[nH]c3ncnc(N4CCOCC4)c23)c1
[14]
  % of inhibition: -9%
